Assay results published in PMC11243685, “Synthesis and Enzymatic Evaluation of a Small Library of Substituted Phenylsulfonamido-Alkyl Sulfamates towards Carbonic Anhydrase II” (Molecules, 2024).

Legend:
[1] = biological target: T1, bovine carbonic anhydrase II (Bos taurus, UniProt P00921); test: Enzymatic assay of bCA II inhibition, absorbance at 415 nm; assay type: biochemical; conditions: for inhibition at 1 µM: bCA II, 1 μM concentration of the inhibitor, triplicate with three technical replicas; for Ki: CA II, from Lineweaver–Burk, Dixon and Cornish Bowden plots, read-out: Inhibition constant Ki;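 as to all read-outs here: enzyme is carbonic anhydrase II isolated from bovine erythrocytes, with its activity followed photometrically at 415 nm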
T1 construct: carbonic anhydrase II (bCAII, ≥3000 W-A units/mg from bovine erythrocytes) from Sigma; purchased Sigma (Taufkirchen, Germany); host or cells: isolated from bovine erythrocytes
T1 sequence (P00921 whole entry): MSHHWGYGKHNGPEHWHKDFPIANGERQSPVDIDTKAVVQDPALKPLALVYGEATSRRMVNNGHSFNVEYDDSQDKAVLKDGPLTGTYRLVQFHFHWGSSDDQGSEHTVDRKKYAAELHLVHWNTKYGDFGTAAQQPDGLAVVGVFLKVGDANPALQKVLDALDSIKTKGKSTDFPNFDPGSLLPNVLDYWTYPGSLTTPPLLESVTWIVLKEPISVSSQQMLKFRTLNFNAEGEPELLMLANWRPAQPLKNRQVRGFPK
Procedure: The enzymatic assays have been performed with carbonic anhydrase II (bCAII, ≥3000 W-A units/mg from bovine erythrocytes) from Sigma (Taufkirchen, Germany) using a BMG Labtech Spectrostar Omega apparatus (BMG Labtech, Ortenberg, Germany) measuring λ = 415 nm. Conditions have been described previously [72]. Ki and Ki′ values were determined from Lineweaver–Burk, Dixon and Cornish Bowden plots, respectively.

| Structure (SMILES) | inhibition at 1 µM [1] [%] | melting point [°C] | Ki [1] [µM] |
| --- | --- | --- | --- |
| NS(=O)(=O)OCCCCCCCCCNS(=O)(=O)c1ccc(C23CC4CC(CC(C4)C2)C3)cc1 [78b, 9-[(4-(Adamantan-1-yl)phenyl)sulfonamido]nonyl Sulfamate] | 36.1 ± 1.8 | 94 to 96 |  |
| NS(=O)(=O)OCCCNS(=O)(=O)c1ccc(C2CCCCC2)cc1 [69b, 3-[(4-Cyclohexylphenyl)sulfonamido]propyl Sulfamate] | 43.1 ± 1.5 | 113 to 114 |  |
| CC(C)(C)c1ccc(S(=O)(=O)NCCCCCCCOS(N)(=O)=O)cc1 [54b, 7-[(4-(tert-Butyl)phenyl)sulfonamido]heptyl Sulfamate] | 28.4 ± 0.4 | 95 to 96 |  |
| Cc1cccc(S(=O)(=O)NCCCCCCOS(N)(=O)=O)c1 [23b, 6-[(3-Methylphenyl)sulfonamido]hexyl Sulfamate] | 51.8 ± 0.7 | 74 to 75 |  |
| Cc1cccc(S(=O)(=O)NCCCCOS(N)(=O)=O)c1 [21b, 4-[(3-Methylphenyl)sulfonamido]butyl Sulfamate] | 32.2 ± 0.6 | 62 to 64 |  |
| Cc1ccc(S(=O)(=O)NCCCCCCCCOS(N)(=O)=O)cc1 [18b, 8-[(4-Methylphenyl)sulfonamido]octyl Sulfamate] | 54.7 ± 0.6 | 98 to 100 |  |
| NS(=O)(=O)OCCCCCCCCNS(=O)(=O)c1ccc(C23CC4CC(CC(C4)C2)C3)cc1 [77b, 8-[(4-(Adamantan-1-yl)phenyl)sulfonamido]octyl Sulfamate] | 32.6 ± 0.4 | 85 to 86 |  |
| NS(=O)(=O)OCCCCCCCCNS(=O)(=O)c1ccccc1 [7b, 8-(Phenylsulfonamido]octyl Sulfamate] | 60.2 ± 0.7 | 77 to 78 |  |
| CC(C)(C)c1cccc(S(=O)(=O)NCCCCCCCCOS(N)(=O)=O)c1 [64b, 8-[(3-(tert-Butyl)phenyl)sulfonamido]octyl Sulfamate] | 16 ± 0.4 | 57 to 59 |  |
| CC(C)c1ccc(S(=O)(=O)NCCOS(N)(=O)=O)cc1 [33b, 2-[(4-Isopropylphenyl)sulfonamido]ethyl Sulfamate] | 63.2 ± 0.4 | 81 to 82 | 0.84 ± 0.02 |
| NS(=O)(=O)OCCCCCCNS(=O)(=O)c1ccc(C2CCCCC2)cc1 [72b, 6-[(4-Cyclohexylphenyl)sulfonamido]hexyl Sulfamate] | 8.6 ± 0.6 | 86 to 88 |  |
| Cc1ccc(S(=O)(=O)NCCCCCCCOS(N)(=O)=O)cc1 [17b, 7-[(4-Methylphenyl)sulfonamido]heptyl Sulfamate] | 42.8 ± 0.5 | 85 to 86 |  |
| Cc1ccc(S(=O)(=O)NCCCCCOS(N)(=O)=O)cc1 [15b, 5-[(4-Methylphenyl)sulfonamido]pentyl Sulfamate] | 58.9 ± 0.2 | 94 to 95 |  |
| Cc1ccccc1S(=O)(=O)NCCOS(N)(=O)=O [26b, 2-[(2-Methylphenyl)sulfonamido]ethyl Sulfamate] | 69.1 ± 0.7 | 70 to 72 | 1.1 ± 0.03 |
| NS(=O)(=O)OCCCCCCCCCNS(=O)(=O)c1ccc(C2CCCCC2)cc1 [75b, 9-[(4-Cyclohexylphenyl)sulfonamido]nonyl Sulfamate] | 32.1 ± 0.8 | 88 to 89 |  |
| Cc1ccc(S(=O)(=O)NCCCCOS(N)(=O)=O)cc1 [14b, 4-[(4-Methylphenyl)sulfonamido]butyl Sulfamate] | 42.9 ± 0.1 | 66 to 68 |  |
| CC(C)(C)c1ccc(S(=O)(=O)NCCCOS(N)(=O)=O)cc1 [50b, 3-[(4-(tert-Butyl)phenyl)sulfonamido]propyl Sulfamate] | 63.4 ± 0.6 | 85 to 86 |  |
| Cc1ccc(S(=O)(=O)NCCO)cc1 [12a, N-(2-Hydroxyethyl)-4-methylbenzene Sulfonamide] |  | 55 to 57 |  |
